# From patent US6020373A, “Chelate derivatives as protectors against tissue injury” (Eastern Virginia Medical School, priority 1997, dated 2000)
# Entries after “also recorded” stand apart in the source; their conditions may differ.
# Assays:
# [1] = tested on: radiation damage of right hind leg; experiment: Radioprotection in mice: radiation damage scores of the irradiated right hind leg; conditions: for Av score (average radiation damage score, day 15-20): 6 mice per group; for effectiveness as radioprotectant: IP, mice, limb irradiation 30-40 Gy; for Av Score (average radiation damage score, day 12-24): 30 Gy to right limb, 12 mice per group, IP mmole/kg: IDA 16.7, EDTA 8.6, MPEG 17.9, MIDA 10.3, MPEDTA 7.7, saline 1.54
# Method: The effect of PEG derivatives on tissue tolerance to radiation was tested. Groups of 6 or 12 female Swiss-Webster mice were given IP solutions of the derivatives at a dose of approxfimately one-half of the LD50. Ten minutes later, pentobarbital (PB) 0.262 mmole/kg was given IP, and twenty minutes after the first injection, the right hind leg only was irradiated with 30, 35 or 40 Gy using the Philips RT-250 unit operated under the following conditions: 200 kVp, 20 mA, 0.2 mm Cu added filtration, HVL 0.57 mm Cu, dose rate of 1.834 Gy/min. Mice were irradiated in groups of 6 or 12, and their legs were arranged within a 20×24 cm aperture cone at a 50 cm target-to-skin distance such that all their legs were within a 95% isodose. The output of the X-ray unit was calibrated using a Capintec PT-06C Farmer chamber. Controls received only PB and 0.4 ml normal saline in place of the drug.
# The mice were examed daily by two independent observers for 24 days, and the limbs were scored for radiation damage graded on a scale of 0 to 3.5 according to criteria previously established (Fowler, et al., Int. J. Rad. Biol., 9:241-252, 1964). Briefly, a score of 1 corresponds to definite reddening of the foot compared to normal and a score of 2 is marked moist desquamation, loss of hair and skin, and sticking together of toes.
# in vivo = conditions: mouse, in vivo, ip
# Method: (§1) For all biological studies, the substances were dissolved in water and brought to pH 7. […] Preliminary determination of the approximate toxicity level of the substances was by intraperitoneal (IP) injection of increasing doses into individual Swiss-Webster female mice until toxicity was evident. The maximum tolerated dose was the highest dose given without evident toxic symptoms such as coma, convulsions, or death. The LD 50 (IP) was determined by using at least three doses in 12 mice at each level, bracketing the approximate LD 50. The mice were followed for at least one week and examined for weight changes, general condition, and behavior. The LD 50 with lower and upper confidene iits was calculated from the data.
# [2] = tested on: blood urea nitrogen levels (BUN); experiment: Effect on renal toxicity of doxorubicin (blood urea nitrogen); conditions: 27 days, FIG. 3; for prevention of doxorubicin-induced BUN increase: 7 mmole/kg IP one hour before 25 mg/kg doxorubicin into tail vein
# [3] = tested on: tissue injury, such as myocardial ischemia-reperfusion injury; conditions: in vivo; cited from earlier work
# [4] = in vivo; cited from earlier work
# B16F1 malignant melanoma = experiment: Effect on doxorubicin-caused tumor growth lag; format: in vivo, C57Bl/6 mice; conditions: IP 30 minutes before doxorubicin 15 mg/kg IP; FIG. 4
# Method: For this assay, the B16F1 malignant melanoma which grows in isologous C57Bl/6 mice was used. […] When the tumors reached an average of 6-8 mm diameter, they were placed in closely matched groups of 12 with similar average size tumors. The groups were injected intraperitoneally with either saline or MPEDTA, followed 30 minutes later by doxorubicin 15 mg/kg IP or saline. Tumor volumes were assessed by daily caliper measreients m two orthogonal planes. Tumor length is defined as the diameter in the plane parallel to the body, while width is defined as the diameter perpendicular to the body. Diameter product (in mm^2) was used as the index of tumor growth. The tumor areas were averaged and plotted vs. time to show growth delay as a function of the various treatments. When the average area reached […], the mice were killed by cervical dislocation. The results are in FIG. 4. The solid circles indicate the groups receiving saline-saline or MPEDTA-saline, the solid squares indicate the group receiving saline-doxorubicin, and the solid triangles indicate the group receiving MPEDTA-doxorubicin.
# Mice = experiment: in vivo; conditions: IP, mice; for LD50: 12 mice at each level, LL and UL confidence limits in own columns; for MTD (maximum tolerated dose): highest dose without evident toxic symptoms such as coma, convulsions, or death
# Method: as §1
# [5] = 40 Gy, IP mmole/kg: EDTAE, DTPA ester, MPDTE 1.0, MPEDTAE 2.0, MPEDTA 8.0, saline 2.93
# [6] = 35 Gy, IP mmole/kg: EDTA, DTPA, MPEDTA, MPDTP 8.0, EDTAE 1.0, MPEDTAE, MPDTE 2.0, saline 2.36
Molecule,"Av score (average radiation damage score, day 15-20) [1, 5]",effectiveness as radioprotectant [1],MTD (in vivo),"Av score (average radiation damage score, day 15-20) [1, 6]","Av Score (average radiation damage score, day 12-24) [1]",further results
COC(=O)CN(CCN(CC(=O)OC)CC(=O)OC)CCN(CC(=O)OC)CC(=O)OC [DTPA methyl ester],2.50,not effective,1000 µmol/kg,–,–,–
"O=C(O)CN(CCN(CC(=O)O)CC(=O)O)CCN(CC(=O)O)CC(=O)O [DTPA, diethylene triamine pentaacetic acid]",–,slightly effective; also recorded: moderately effective,8000 µmol/kg,1.34,–,–
"COc1cccc2c1C(=O)c1c(O)c3c(c(O)c1C2=O)C[C@@](O)(C(=O)CO)C[C@@H]3O[C@H]1C[C@H](N)[C@H](O)[C@H](C)O1 [Doxorubicin, doxorubicin]",–,–,–,–,–,BUN compared with the untreated control group ([2]; 25 mg/kg doxorubicin into tail vein): markedly increased BUN
"O=C(O)CN(CCN(CC(=O)O)CC(=O)O)CC(=O)O [EDTA, ethylene-diamine tetraacetic acid]",–,–,8000 µmol/kg,–,–,prevention of doxorubicin-induced BUN increase [2]: not
"O=C(O)CNCC(=O)O [IDA, iminodiacetate]",–,–,17000 µmol/kg,–,1.19,LD50 (in vivo): 33100 µmol/kg
"CC(=O)N(O)CCCCCNC(=O)CCC(=O)N(O)CCCCCNC(=O)CCC(=O)N(O)CCCCCN [deferoxamine (DEF), deferoxamine]",–,–,–,–,–,effectiveness in reducing tissue injury [3]: some effectiveness in reducing tissue injury; excretion / circulation lifetime [4]: rapid excretion
Methoxypolyethlene Glycol Amide with EDTA [MPEDTA],1.67,extremely effective; also recorded: very effective in reducing or preventing damage from radiation or doxorubicin,–,1.50,0.24,prevention of doxorubicin-induced BUN increase [2]: completely prevented; effect on tumoricidal effect of / tumor growth lag produced by doxorubicin (B16F1 malignant melanoma): clearly did not interfere with the tumoricidal effect of doxorubicin; also recorded: lack of effect; LD50 (Mice): 12.5 mmol/kg; MTD (maximum tolerated dose) (Mice): 8 mmol/kg
Methoxypolyethyene Glycol Amide with DTPA. Calcium Sodium Salt [MPDTP],–,–,–,1.21,–,–
Methoxypolyethylene Glycol Iminodiacetate [MIDA],–,moderately effective,–,–,0.67,"ANOVA comparison of average scores between groups ([1]; average radiation damage scores, Tables II and III): little difference; LD50 (Mice): 20.6 mmol/kg; MTD (maximum tolerated dose) (Mice): 8 mmol/kg"
Metyl Ester of MPEDTA [MPEDTAE],1.45,also effective in protection from tissue injury,–,0.88,–,–
